Test results as given in patent US11110158B2, “Prostate-associated antigens and vaccine-based immunotherapy regimens” (Pfizer Inc., priority 2012, dated 2021).
Where “and” joins values, the source holds several entries; their conditions need not be identical. Equal entries are not always repeated.

How the values were obtained:
[1] = tested on: human PSMA; assay: IFNγ ELISPOT, breaking of immune tolerance in human PSMA transgenic mice; format: in vivo, mouse
Method: Eight-to-10 week-old transgenic mice were immunized using PMED method with various PSMA DNA constructs in a prime/boost/boost regimen, two weeks apart between each vaccination. Alternatively, mice were primed with adenovirus vectors encoding the PSMA antigen at 1×10^9 viral particles in 50 μl (PBS) by intramuscular injection. The adenovirus vector (pShuttle-CMV vector from Stratagene) was modified to contain NheI and BgIII restriction sites within the multiple cloning site. The DNA encoding human PSMA modified was then restriction digested with NheI and BgIII, ligated into this vector and sequence confirmed. The pShuttle human PSMA modified vector was then recombined with the pAdEasy-1 vector and virus was propagated according to the AdEasy system (Stratagene). Twenty-days later, they were boosted with PMED as described above. In each of the regimens used, antigen specific T cell response was measured 7 days after the last immunization in an interferon-gamma (IFNγ) ELISPOT assay. The ELISPOT assay is similar to the sandwich enzyme-linked immunosorbent assay (ELISA). Briefly, a capture antibody specific to IFNγ BD Bioscience, #51-2525kc) is coated onto a polyvinylidene fluoride (PVDF) membrane in a microplate overnight at 4° C. The plate is blocked with serum/protein to prevent nonspecific binding to the antibody. […]

[2] = tested on: rhesus PSMA; assay: IFNγ ELISPOT of PBMCs, PSMA vaccine with or without anti-CTLA-4 in Indian rhesus macaques, rhesus PSMA recall antigens; format: in vivo; conditions: Group 2, vaccine + CpG 3 mg intradermal + aCTLA4 10 mg/kg intravenous (IV), normalized to 1e6 PBMCs, one cell per animal
Description: Three groups of male Indian rhesus macaques, five to six (#1 to 5 or 6) per each test group, were immunized with a nucleic acid (SEQ ID NO: 10) that encodes a human PSMA modified antigen (SEQ ID NO: 9) delivered by adenovirus (1e11 V.P. injected intramuscularly) followed by 2 DNA immunizations (8 actuations/immunization, 4 actuations per each right and left side of the lower abdomen) by PMED with 6 and 9 week intervals respectively. Animals in Groups 2 and 3 additionally received bilateral intradermal injections of 3 mg of CpG (PF-03512676) subsequently after the PMED immunization in proximity to each inguinal draining lymph node. Group 2 also received intravenous injections of anti-CTLA-4 monoclonal antibody (CP-675, 206) at 10 mg/kg and group 3 received intradermal injections of anti-CTLA-4 monoclonal antibody (CP-675, 206) at 5 mg/kg in proximity to each left and right inguinal vaccine draining lymph node at the time of the second PMED immunization.
Peripheral blood samples were collected from each animal sixteen days after the last PMED immunization. Peripheral blood mononuclear cells (PBMCs) were isolated from the samples and were subjected to an IFNγ ELISPOT assay to measure the PSMA specific T cell responses. […] The number of IFNγ spot forming cells (SFC) were counted by CTL reader. […]

Row | Substance | # of positive ([1]; Table 12, human PSMA transgenic mice with SFC>50 / mice tested) | PSMA transgenic mice able to mount a T cell response to human PSMA ([1]; human PSMA transgenic mice, SFC>50 positive) | PSMA specific IFNγ SFC, recall antigen R1 [2] | PSMA specific IFNγ SFC, recall antigen rPSMA protein [2]
1 | PSMA modified: membrane-bound polypeptide of amino acids 15-750 of human PSMA, SEQ ID NO: 9; tested as DNA construct | 2/10 | 20% | – | –
2 | Tremelimumab: fully human IgG2 anti-CTLA-4 monoclonal antibody, CAS 745013-59-6, SEQ ID NOs:42 and 43 | – | – | 6.3 SFC and 0.0 SFC and 22.5 SFC and 26.3 SFC and 97.5 SFC | 0.0 SFC and 3.8 SFC and 1.3 SFC and 2.5 SFC and 20.0 SFC
